# In publication PMC4259414, “HS-133, a novel fluorescent phosphatidylinositol 3-kinase inhibitor as a potential imaging and anticancer agent for targeted therapy” (Oncotarget, 2014):
# Tests used:
# [1] = tested on: PI3K/Akt pathway in SkBr3 cells; assay: Western blotting of PI3K/Akt signaling in SkBr3 cells; assay type: cell-based, human; settings: SkBr3, 1–50 μM, 6 h
# Method: It has been shown that breast tumor cell growth is closely related to the activation of the PI3K/Akt pathway. […] Therefore, we evaluated the effects of HS-133 on the PI3K/Akt pathway in breast cancer cells. The PI3K inhibitory activity of HS-133 was assessed in the SkBr3 cells.
# (§1) The cells were washed three times with ice-cold PBS before lysis, and were lysed with a buffer containing 1% Triton X-100, 1% Nonidet P-40 (NP-40), as well as protease and phosphatase inhibitor cocktails (GenDEPOT, Barker, TX). Equal amounts of protein were separated by 10% sodium dodecyl sulfate-polyacrylamide gel electrophoresis (SDS-PAGE) and transferred onto the polyvinylidene fluoride (PVDF) membranes (Millipore, Bedford, MA). Immunostaining was performed by incubating the blots with primary antibodies, followed by horseradish peroxidase (HRP)-conjugated secondary antibody and detected with an enhanced chemiluminescence (ECL) plus system (Amersham Biosciences, Piscataway, NJ). The primary mouse antibodies against the following factors were used: p27 (Cell Signaling Technologies, Danvers, MA), cyclin D1, hypoxia-inducible factor-1α (HIF-1α, BD Biosciences, SanJose, CA), VEGF (Novus Biologicals, Littleton, CO) and β-actin (Abcam, Cambridge, MA). […]
# [2] = tested on: HIF-1α and VEGF in SkBr3 cells; assay: hypoxia-induced HIF-1α and VEGF, Western blotting and ELISA; assay type: cell-based, human
# Method: Since HIF-1α is the major regulator of cellular adaptive responses to hypoxia, we examined the effect of HS-133 on the expression of the HIF-1α in SkBr3 cells. The cells were treated with various concentrations of HS-133 (1–50 μM) under hypoxic mimicking conditions induced by a treatment with 100 μM CoCl2 for 16 h. […] To further determine the effect of HS-133 on hypoxia-induced VEGF, an immediate downstream target gene of HIF-1α, the protein and production of VEGF were measured by western blotting and ELISA in the SkBr3 cells.
# as §1, with “NJ).” for “NJ). The primary mouse antibodies against the following factors were used: p27 (Cell Signaling Technologies, Danvers, MA), cyclin D1, hypoxia-inducible factor-1α (HIF-1α, BD Biosciences, SanJose, CA), VEGF (Novus Biologicals, Littleton, CO) and β-actin (Abcam, Cambridge, MA).”
# The amount of VEGF secreted into the media was measured by sandwich ELISA. […] The absorbance at 450 nm was measured with a 96-well plate reader.
smiles,measurement,setting,value
"CC(=O)Nc1ccc(-c2nc3c(c(=O)n(C)c(=O)n3C)n2-c2cccc(F)c2)cc1 [HS-133, N-(4-(7-(3-Fluorophenyl)-1,3-dimethyl-2,6-dioxo-2,3,6,7-tetrahydro-1H-purin-8-yl)phenyl) acetamide]","phosphorylation of Akt, mTOR, p70S6K and 4E-BP1",[1],effectively suppressed
same,hypoxia-induced HIF-1α expression,"[2]; SkBr3, 1–50 μM, 100 μM CoCl2, 16 h",inhibited the hypoxia-induced HIF-1α expression
same,hypoxia-induced VEGF expression and production,"[2]; SkBr3, CoCl2, Western blotting and ELISA",suppress the VEGF expression and production in a dose-dependent manner
